Data taken from PubChem BioAssay (NCI).
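Cells were grown in 96-well plates and exposed to each compound for 48 hours at five concentrations; endpoints were interpolated linearly between bracketing concentrations, or set to the highest concentration if not reached. Definition used: TGI = concentration required for complete inhibition of growth.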

Experiments:
Experiment in all cases: DTP human tumour cell line panel, 48 h
[1] = tested on: HOP-62 NSCLC
[2] = tested on: OVCAR-4 ovarian
[3] = tested on: MCF7 breast
[4] = tested on: IGROV1 ovarian
[5] = tested on: MDA-N
[6] = tested on: HL-60(TB) leukemia
[7] = tested on: M14 melanoma
[8] = tested on: T-47D breast
[9] = tested on: NCI/ADR-RES ovarian
[10] = tested on: SN12C renal
[11] = tested on: SK-MEL-5 melanoma
[12] = tested on: DU-145 prostate
[13] = tested on: HT29 colon
[14] = tested on: NCI-H23 lung
[15] = tested on: SR leukemia
[16] = tested on: ACHN renal
[17] = tested on: SF-539 CNS
[18] = tested on: MALME-3M melanoma
[19] = tested on: SF-295 CNS
[20] = tested on: U251 CNS
[21] = tested on: A498 renal
[22] = tested on: COLO 205 colon
[23] = tested on: SK-MEL-28 melanoma
[24] = tested on: KM12 colon
[25] = tested on: HCT-15 colon
[26] = tested on: MOLT-4 leukemia
[27] = tested on: EKVX NSCLC
[28] = tested on: RXF 393 renal
[29] = tested on: LOX IMVI melanoma
[30] = tested on: SNB-19 CNS
[31] = tested on: SNB-75 CNS
[32] = tested on: NCI-H226 lung
[33] = tested on: HCT-116 colon
[34] = tested on: K-562 leukemia
[35] = tested on: SF-268 CNS
[36] = tested on: SK-MEL-2 melanoma
[37] = tested on: TK-10 renal
[38] = tested on: PC-3 prostate
[39] = tested on: A549 NSCLC
[40] = tested on: MDA-MB-435
[41] = tested on: BT-549 breast
[42] = tested on: CAKI-1 renal
[43] = tested on: CCRF-CEM leukemia
[44] = tested on: NCI-H460 lung
[45] = tested on: SW-620 colon
[46] = tested on: RPMI-8226 leukemia
[47] = tested on: OVCAR-5 ovarian
[48] = tested on: UACC-62 melanoma
[49] = tested on: OVCAR-8 ovarian
[50] = tested on: UACC-257 melanoma
[51] = tested on: NCI-H522 lung
[52] = tested on: SK-OV-3 ovarian
[53] = tested on: UO-31 renal
[54] = tested on: MDA-MB-231 breast
[55] = tested on: 786-0 renal
[56] = tested on: HOP-92 NSCLC
[57] = tested on: HS 578T breast
[58] = tested on: OVCAR-3 ovarian
[59] = tested on: HCC-2998 colon

CC(=NC1CCCCC1)c1ccccc1O
TGI [1]: > 100 µM | TGI [2]: > 100 µM | TGI [3]: > 100 µM | TGI [4]: > 100 µM | TGI [5]: > 100 µM | TGI [6]: > 100 µM | TGI [7]: > 100 µM | TGI [8]: > 100 µM | TGI [9]: > 100 µM | TGI [10]: > 100 µM | TGI [11]: > 100 µM | TGI [12]: > 100 µM | TGI [13]: > 100 µM | TGI [14]: > 100 µM | TGI [15]: > 100 µM | TGI [16]: > 100 µM | TGI [17]: > 100 µM | TGI [18]: > 100 µM | TGI [19]: > 100 µM | TGI [20]: > 100 µM | TGI [21]: > 100 µM | TGI [22]: > 100 µM | TGI [23]: > 100 µM | TGI [24]: > 100 µM | TGI [25]: > 100 µM | TGI [26]: > 100 µM | TGI [27]: > 100 µM | TGI [28]: > 100 µM | TGI [29]: > 100 µM | TGI [30]: > 100 µM | TGI [31]: > 100 µM | TGI [32]: > 100 µM | TGI [33]: > 100 µM | TGI [34]: > 100 µM | TGI [35]: > 100 µM | TGI [36]: > 100 µM | TGI [37]: > 100 µM | TGI [38]: > 100 µM | TGI [39]: > 100 µM | TGI [40]: > 100 µM | TGI [41]: > 100 µM | TGI [42]: > 100 µM | TGI [43]: > 100 µM | TGI [44]: > 100 µM | TGI [45]: > 100 µM | TGI [46]: > 100 µM | TGI [47]: > 100 µM | TGI [48]: > 100 µM | TGI [49]: > 100 µM | TGI [50]: > 100 µM | TGI [51]: > 100 µM | TGI [52]: > 100 µM | TGI [53]: > 100 µM | TGI [54]: > 100 µM | TGI [55]: > 100 µM | TGI [56]: > 100 µM

O=c1[nH]c(=S)[nH]c2c1C(c1ccc(Cl)cc1)c1c([nH]c(=S)[nH]c1=O)O2
TGI [1]: > 100 µM | TGI [2]: > 100 µM | TGI [3]: > 100 µM | TGI [4]: > 100 µM | TGI [5]: > 100 µM | TGI [6]: > 100 µM | TGI [7]: > 100 µM | TGI [9]: > 100 µM | TGI [10]: > 100 µM | TGI [11]: > 100 µM | TGI [12]: > 100 µM | TGI [13]: > 100 µM | TGI [14]: > 100 µM | TGI [16]: > 100 µM | TGI [18]: > 100 µM | TGI [57]: > 100 µM | TGI [19]: > 100 µM | TGI [20]: > 100 µM | TGI [21]: > 100 µM | TGI [22]: > 100 µM | TGI [23]: > 100 µM | TGI [24]: > 100 µM | TGI [25]: > 100 µM | TGI [26]: > 100 µM | TGI [27]: > 100 µM | TGI [28]: > 100 µM | TGI [29]: > 100 µM | TGI [30]: > 100 µM | TGI [32]: > 100 µM | TGI [33]: > 100 µM | TGI [34]: > 100 µM | TGI [35]: > 100 µM | TGI [36]: > 100 µM | TGI [37]: > 100 µM | TGI [38]: > 100 µM | TGI [39]: > 100 µM | TGI [40]: > 100 µM | TGI [58]: > 100 µM | TGI [41]: > 100 µM | TGI [42]: > 100 µM | TGI [43]: > 100 µM | TGI [44]: > 100 µM | TGI [45]: > 100 µM | TGI [46]: > 100 µM | TGI [47]: > 100 µM | TGI [48]: > 100 µM | TGI [49]: > 100 µM | TGI [50]: > 100 µM | TGI [51]: > 100 µM | TGI [53]: > 100 µM | TGI [54]: > 100 µM | TGI [55]: > 100 µM | TGI [56]: > 100 µM

CCN(CC)c1ccc2cc(-c3nc(-c4ccccc4)n[nH]3)c(=O)oc2c1
TGI [1]: 22 µM | TGI [59]: > 100 µM | TGI [2]: 53.7 µM | TGI [3]: > 100 µM | TGI [4]: 57.9 µM | TGI [5]: > 100 µM | TGI [6]: > 100 µM | TGI [7]: > 100 µM | TGI [9]: > 100 µM | TGI [11]: > 100 µM | TGI [12]: 40.4 µM | TGI [13]: > 100 µM | TGI [14]: 44.6 µM | TGI [15]: > 100 µM | TGI [16]: > 100 µM | TGI [17]: 45.6 µM | TGI [18]: > 100 µM | TGI [57]: > 100 µM | TGI [19]: > 100 µM | TGI [20]: 96.2 µM | TGI [21]: 90.1 µM | TGI [22]: > 100 µM | TGI [23]: > 100 µM | TGI [24]: > 100 µM | TGI [25]: > 100 µM | TGI [26]: > 100 µM | TGI [27]: 88.7 µM | TGI [29]: > 100 µM | TGI [30]: 61.5 µM | TGI [33]: > 100 µM | TGI [34]: > 100 µM | TGI [35]: > 100 µM | TGI [36]: > 100 µM | TGI [38]: 70.1 µM | TGI [39]: > 100 µM | TGI [40]: > 100 µM | TGI [58]: > 100 µM | TGI [41]: 89.3 µM | TGI [42]: 73.8 µM | TGI [43]: > 100 µM | TGI [44]: > 100 µM | TGI [45]: > 100 µM | TGI [46]: > 100 µM | TGI [47]: > 100 µM | TGI [48]: > 100 µM | TGI [49]: 28.7 µM | TGI [50]: > 100 µM | TGI [51]: > 100 µM | TGI [52]: 39.4 µM | TGI [53]: 20.4 µM | TGI [55]: 32.1 µM
